Values quoted from earlier work as cited in patent US11219614B2, “Combination cancer therapy with pentaaza macrocyclic ring complex and ascorbate compound” (Galera Labs, LLC, priority 2016, dated 2022).

Experiments:
[1] = test system: collagen-induced arthritis; details: rat; cited from earlier work
[2] = test system: radiation-induced oral mucositis; details: hamster, acute radiation-induced oral mucositis; cited from earlier work
[3] = test system: inflammation; details: rat model; cited from earlier work
[4] = test system: lethal total body irradiation; details: adult mice; cited from earlier work
[5] = test system: experimental model of colitis; details: rats; cited from earlier work
[6] = pH 7, absence of catalytic metals; cited from earlier work

Compound	joint disease [1]	radiation damage [2]	inflammation [3]	radiation damage [4]	injury to the colon [5]	stability of solution [6]
[Cl-].[Cl-].[Mn+2].c1cc2nc(c1)CN[C@@H]1CCCC[C@H]1NCCN[C@@H]1CCCC[C@H]1NC2 [GC4403]	prevent joint disease	attenuate the radiation damage	inhibit inflammation	attenuate the radiation damage	very significantly reduce the injury to the colon	–
O=C1O[C@H]([C@@H](O)CO)C(O)=C1O [ascorbic acid, (5R)-[(1S)-1,2-Dihydroxyethyl]-3,4-dihydroxyfuran-2(5H)-one]	–	–	–	–	–	stable at pH 7
